The values below come from patent publication US20100286145A1, “ISOPHTHALAMIDE DERIVATIVES INHIBITING BETA-SECRETASE ACTIVITY” (CoMentis, Inc., priority 2007, published 2010).

SMILES strings stand for the structures. Where only a bound is given, the exact number is not on record here.

The target of the assay is memapsin 2 (Homo sapiens, UniProt P56817). Description: Inhibition of memapsin 2 beta-secretase activity (fluorogenic substrate FS-2). The assay is classed as biochemical. The settings on record: memapsin 2, pH 4, 37° C., fluorogenic substrate FS-2; read-out: M2Ki. In a few lines: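 Memapsin 2 pre-incubated 20 min with compound at pH 4, 37° C, then FS-2 substrate (MCA-SEVNLDAEFK-DNP, APP Swedish cleavage site) added. Rate of fluorescence increase compared with uninhibited controls, fitted to a tight-binding inhibition model.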
Sequence of memapsin 2 (P56817 46-501): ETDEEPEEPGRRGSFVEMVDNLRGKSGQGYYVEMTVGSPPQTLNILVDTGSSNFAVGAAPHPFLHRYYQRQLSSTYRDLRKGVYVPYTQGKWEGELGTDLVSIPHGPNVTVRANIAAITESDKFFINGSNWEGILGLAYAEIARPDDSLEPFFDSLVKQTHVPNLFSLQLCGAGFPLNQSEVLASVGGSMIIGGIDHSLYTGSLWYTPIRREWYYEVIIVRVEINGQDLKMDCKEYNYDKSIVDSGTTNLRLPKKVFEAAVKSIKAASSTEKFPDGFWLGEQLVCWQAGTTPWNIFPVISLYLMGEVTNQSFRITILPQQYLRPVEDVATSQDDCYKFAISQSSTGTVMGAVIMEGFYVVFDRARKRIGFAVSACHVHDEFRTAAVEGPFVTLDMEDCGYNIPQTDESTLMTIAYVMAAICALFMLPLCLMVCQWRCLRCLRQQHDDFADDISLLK
Take `C=C(C)c1cncc(C(=O)NC[C@@H](O)[C@H](Cc2ccccc2)NC(=O)c2cccc(C(=O)N(C)Cc3nc(C)cs3)c2)c1` [Compound 288, N1-((2S,3R)-3-hydroxy-1-phenyl-4-(5-(prop-1-en-2-yl)nicotinamido)butan-2-yl)-N3-methyl-N3-((4-methylthiazol-2-yl)methyl)isophthalamide]: the Ki is more than 501 nM.

For the compound `Cc1csc(CN(C)C(=O)c2cc(C(=O)N[C@@H](Cc3ccccc3)[C@H](O)CNCc3cccc(C(F)(F)F)c3)cc(-c3ncco3)c2)n1` [Compound 289, N1-((2S,3R)-3-hydroxy-1-phenyl-4-(3-(trifluoromethyl)benzylamino)butan-2-yl)-N3-methyl-N3-((4-methylthiazol-2-yl)methyl)-5-(oxazol-2-yl)isophthalamide], the Ki was less than 300 nM.

As to `COc1cccc([C@@H](C)NC[C@@H](O)[C@H](Cc2ccccc2)NC(=O)c2cc(C(=O)N(C)Cc3nc(C)cs3)cc(-c3ncco3)c2)c1` [Compound 290, N1-((2S,3R)-3-hydroxy-4-((R)-1-(3-methoxyphenyl)ethylamino)-1-phenylbutan-2-yl)-N3-methyl-N3-((4-methylthiazol-2-yl)methyl)-5-(oxazol-2-yl)isophthalamide], the Ki was less than 300 nM.

Regarding `Cc1csc(CN(C)C(=O)c2cccc(C(=O)N[C@@H](Cc3ccccc3)[C@H](O)CNCc3cccc(C(F)(F)F)c3O)c2)n1` [Compound 291, N1-((2S,3R)-3-hydroxy-4-(2-hydroxy-3-(trifluoromethyl)benzylamino)-1-phenylbutan-2-yl)-N3-methyl-N3-((4-methylthiazol-2-yl)methyl)isophthalamide], the Ki is more than 501 nM.

Turning to `COc1cccc([C@H](C)NC[C@@H](O)[C@H](Cc2ccccc2)NC(=O)c2cc(C(=O)N(C)Cc3nc(C)cs3)cc(-c3ncco3)c2)c1` [Compound 292, N1-((2S,3R)-3-hydroxy-4-((S)-1-(3-methoxyphenyl)ethylamino)-1-phenylbutan-2-yl)-N3-methyl-N3-((4-methylthiazol-2-yl)methyl)-5-(oxazol-2-yl)isophthalamide], the Ki is less than 300 nM.

Regarding `Cc1csc(CNC[C@@H](O)[C@H](Cc2ccccc2)NC(=O)c2cccc(C(=O)N(C)Cc3nc(C)cs3)c2)n1` [Compound 294, N1-((2S,3R)-3-hydroxy-4-((4-methylthiazol-2-yl)methylamino)-1-phenylbutan-2-yl)-N3-methyl-N3-((4-methylthiazol-2-yl)methyl)isophthalamide], the Ki was more than 501 nM.

`Cc1csc(CN(C)C(=O)c2cc(C(=O)N[C@@H](Cc3ccccc3)[C@H](O)CNCc3cncc(C(C)C)c3)cc(-c3cn[nH]c3)c2)n1` [Compound 295, N1-((2S,3R)-3-hydroxy-4-((5-isopropylpyridin-3-yl)methylamino)-1-phenylbutan-2-yl)-N3-methyl-N3-((4-methylthiazol-2-yl)methyl)-5-(1H-pyrazol-4-yl)isophthalamide]: the Ki is less than 300 nM.

For `COc1cccc(CNC[C@@H](O)[C@H](Cc2ccccc2)NC(=O)c2cccc(C(=O)N(C)Cc3nc(C)cs3)c2O)c1` [Compound 296, 2-hydroxy-N1-((2S,3R)-3-hydroxy-4-(3-methoxybenzylamino)-1-phenylbutan-2-yl)-N3-methyl-N3-((4-methylthiazol-2-yl)methyl)isophthalamide], the Ki was more than 501 nM.

As to `Cc1csc(CN(C)C(=O)c2cccc(C(=O)N[C@@H](Cc3ccccc3)[C@H](O)CNCc3cncc(C(C)C)c3)c2O)n1` [Compound 297, 2-hydroxy-N1-((2S,3R)-3-hydroxy-4-((5-isopropylpyridin-3-yl)methylamino)-1-phenylbutan-2-yl)-N3-methyl-N3-((4-methylthiazol-2-yl)methyl)isophthalamide], the Ki is more than 501 nM.

In the case of `Cc1csc(CN(C)C(=O)c2cc(C(=O)N[C@@H](Cc3ccccc3)[C@H](O)CNCc3cncc(C(C)C)c3)cc(-c3ccc(N(C)C)cc3)c2)n1` [Compound 298, 4′-(dimethylamino)-N3-((2S,3R)-3-hydroxy-4-((5-isopropylpyridin-3-yl)methylamino)-1-phenylbutan-2-yl)-N5-methyl-N5-((4-methylthiazol-2-yl)methyl)biphenyl-3,5-dicarboxamide], the Ki is less than 300 nM.

`Cc1csc(CN(C)C(=O)c2cc(C(=O)N[C@@H](Cc3ccccc3)[C@H](O)CNCc3cncc(C(C)C)c3)cc(-n3ccnc3)c2)n1` [Compound 300, N1-((2S,3R)-3-hydroxy-4-((5-isopropylpyridin-3-yl)methylamino)-1-phenylbutan-2-yl)-5-(1H-imidazol-1-yl)-N3-methyl-N3-((4-methylthiazol-2-yl)methyl)isophthalamide]: the Ki was less than 300 nM.

Turning to `COc1cccc([C@H](C)NC[C@@H](O)[C@H](Cc2ccccc2)NC(=O)c2cc(C(=O)N(C)Cc3nc(C)cs3)cc(C(F)F)c2)c1` [Compound 301, 5-(difluoromethyl)-N1-((2S,3R)-3-hydroxy-4-((S)-1-(3-methoxyphenyl)ethylamino)-1-phenylbutan-2-yl)-N3-methyl-N3-((4-methylthiazol-2-yl)methyl)isophthalamide], the Ki was less than 300 nM.

`Cc1csc(CN(C)C(=O)c2cccc(C(=O)N[C@@H](Cc3ccccc3)[C@H](O)CNCc3cc(C(F)(F)F)ccn3)c2)n1` [Compound 302, N1-((2S,3R)-3-hydroxy-1-phenyl-4-((4-(trifluoromethyl)pyridin-2-yl)methylamino)butan-2-yl)-N3-methyl-N3-((4-methylthiazol-2-yl)methyl)isophthalamide]: the Ki was less than 300 nM.

For the compound `Cc1csc(CN(C)C(=O)c2cc(C(=O)N[C@@H](Cc3ccccc3)[C@H](O)CNCc3cncc(C(C)C)c3)cc(-c3ccoc3)c2)n1` [Compound 303, 5-(furan-3-yl)-N1-((2S,3R)-3-hydroxy-4-((5-isopropylpyridin-3-yl)methylamino)-1-phenylbutan-2-yl)-N3-methyl-N3-((4-methylthiazol-2-yl)methyl)isophthalamide], the Ki is less than 300 nM.

Consider `Cc1csc(CN(C)C(=O)c2cccc(C(=O)N[C@@H](Cc3ccccc3)[C@H](O)CNCc3cncc(NC(C)C)c3)c2)n1` [Compound 304, N1-((2S,3R)-3-hydroxy-4-((5-(isopropylamino)pyridin-3-yl)methylamino)-1-phenylbutan-2-yl)-N3-methyl-N3-((4-methylthiazol-2-yl)methyl)isophthalamide], for which the Ki is less than 300 nM.

Consider `Cc1csc(CN(C)C(=O)c2cc(C(=O)N[C@@H](Cc3ccccc3)[C@H](O)CNCc3cccc(C(F)(F)F)c3)cc(-c3ccco3)c2)n1` [Compound 305, 5-(furan-2-yl)-N1-((2S,3R)-3-hydroxy-1-phenyl-4-(3-(trifluoromethyl)benzylamino)butan-2-yl)-N3-methyl-N3-((4-methylthiazol-2-yl)methyl)isophthalamide], for which the Ki was less than 300 nM.

On to `COc1cccc(CNC[C@@H](O)[C@H](Cc2cc(F)cc(F)c2)NC(=O)c2cc(C(C)=O)cc(C(=O)N[C@H](C)c3ccccc3)c2)c1` [Compound 306, 5-acetyl-N1-((2S,3R)-1-(3,5-difluorophenyl)-3-hydroxy-4-(3-methoxybenzylamino)butan-2-yl)-N3-((R)-1-phenylethyl)isophthalamide], for which the Ki is less than 300 nM.

With `COc1cccc(CNC[C@@H](O)[C@H](Cc2ccccc2)NC(=O)c2cc(C(=O)N(C)Cc3nc(C)cs3)cc(C3CCC(O)C3)c2)c1` (stereo partly drawn) [Compound 307, N1-((2S,3R)-3-hydroxy-4-(3-methoxybenzylamino)-1-phenylbutan-2-yl)-5-(3-hydroxycyclopentyl)-N3-methyl-N3-((4-methylthiazol-2-yl)methyl)isophthalamide], the Ki was more than 501 nM.

`CC(=O)c1cc(C(=O)N[C@@H](Cc2ccccc2)[C@H](O)CNCc2cncc(C(C)C)c2)cc(C(=O)N[C@H](C)c2ccccc2)c1` [Compound 308, 5-acetyl-N1-((2S,3R)-3-hydroxy-4-((5-isopropylpyridin-3-yl)methylamino)-1-phenylbutan-2-yl)-N3-((R)-1-phenylethyl)isophthalamide]: the Ki was less than 300 nM.

In the case of `COc1cccc(S(=O)(=O)NC[C@@H](O)[C@H](Cc2ccccc2)NC(=O)c2cccc(C(=O)N(C)Cc3nc(C)cs3)c2)c1` [Compound 309, N1-((2S,3R)-3-hydroxy-4-(3-methoxyphenylsulfonamido)-1-phenylbutan-2-yl)-N3-methyl-N3-((4-methylthiazol-2-yl)methyl)isophthalamide], the Ki is more than 501 nM.

Regarding `Cc1csc(CN(C)C(=O)c2cccc(C(=O)N[C@@H](Cc3ccccc3)[C@H](O)CNS(=O)(=O)c3cccc(C(F)(F)F)c3)c2)n1` [Compound 310, N1-((2S,3R)-3-hydroxy-1-phenyl-4-(3-(trifluoromethyl)phenylsulfonamido)butan-2-yl)-N3-methyl-N3-((4-methylthiazol-2-yl)methyl)isophthalamide], the Ki was more than 501 nM.

As to `Cc1csc(CN(C)C(=O)c2cccc(C(=O)N[C@@H](Cc3ccccc3)[C@H](O)CNCc3cc(OC(=O)CN(C)C)cc(C(C)C)c3)c2)n1` [Compound 311, 3-(((2R,3S)-2-hydroxy-3-(3-(methyl((4-methylthiazol-2-yl)methyl)carbamoyl)benzamido)-4-phenylbutylamino)methyl)-5-isopropylphenyl 2-(dimethylamino)acetate], the Ki was less than 300 nM.

As to `Cc1csc(CN(C)C(=O)c2cccc(C(=O)N[C@@H](Cc3ccccc3)[C@H](O)CN(C)Cc3cncc(C(C)C)c3)c2)n1` [Compound 312, N1-((2S,3R)-3-hydroxy-4-(((5-isopropylpyridin-3-yl)methyl)(methyl)amino)-1-phenylbutan-2-yl)-N3-methyl-N3-((4-methylthiazol-2-yl)methyl)isophthalamide], the Ki is more than 501 nM.

Consider `Cc1csc(CN(C)C(=O)c2cccc(C(=O)N[C@@H](Cc3ccccc3)[C@H](O)CNCc3cncc(C(C)CO)c3)c2)n1` (stereo partly drawn) [Compound 313, N1-((2S,3R)-3-hydroxy-4-((5-(1-hydroxypropan-2-yl)pyridin-3-yl)methylamino)-1-phenylbutan-2-yl)-N3-methyl-N3-((4-methylthiazol-2-yl)methyl)isophthalamide], for which the Ki is less than 300 nM.
